Test results reported in ChEMBL document CHEMBL3046284, “Synthesis, insecticidal activity, and QSAR of novel nitromethylene neonicotinoids with tetrahydropyridine fixed cis configuration and exo-ring ether modification” (2007).

Assays:
Aphis craccivora [1] = test: Insecticidal activity against Aphis craccivora (cowpea aphid) assessed as mortality at 500 mg/l measured after 24 hr; assay type: functional
Aphis craccivora [2] = test: Insecticidal activity against Aphis craccivora (cowpea aphid) assessed as mortality measured after 24 hr; assay type: functional

Row | SMILES | mortality at 500 µg/mL (Aphis craccivora [1]) [%] | LC50 (Aphis craccivora [2]) [µM]
1 | O=[N+]([O-])C1=C2N(Cc3ccc(Cl)nc3)CCN2C(OC/C=C\c2ccccc2)CC1 (centres undefined) | < 10 | 
2 | CCOCCOC1CCC([N+](=O)[O-])=C2N(Cc3ccc(Cl)nc3)CCN21 (centres undefined) | 10.2 | 
3 | O=[N+]([O-])C1=C2N(Cc3ccc(Cl)nc3)CCN2C(O)CC1 (centres undefined) | > 90 | 188
4 | COC1CCC([N+](=O)[O-])=C2N(Cc3ccc(Cl)nc3)CCN21 (centres undefined) | > 90 | 132
5 | CCOC1CCC([N+](=O)[O-])=C2N(Cc3ccc(Cl)nc3)CCN21 (centres undefined) | > 90 | 96
6 | CCCOC1CCC([N+](=O)[O-])=C2N(Cc3ccc(Cl)nc3)CCN21 (centres undefined) | > 90 | 105
7 | CC(C)OC1CCC([N+](=O)[O-])=C2N(Cc3ccc(Cl)nc3)CCN21 (centres undefined) | > 90 | 260
8 | O=[N+]([O-])C1=C2N(Cc3ccc(Cl)nc3)CCN2C(OCCCl)CC1 (centres undefined) | 44.8 | 
9 | O=[N+]([O-])C1=C2N(Cc3ccc(Cl)nc3)CCN2C(OCC(F)(F)F)CC1 (centres undefined) | 10.3 | 
10 | CCCCOC1CCC([N+](=O)[O-])=C2N(Cc3ccc(Cl)nc3)CCN21 (centres undefined) | 77.7 | 
11 | CCC(C)OC1CCC([N+](=O)[O-])=C2N(Cc3ccc(Cl)nc3)CCN21 (centres undefined) | < 10 | 
12 | CC(C)COC1CCC([N+](=O)[O-])=C2N(Cc3ccc(Cl)nc3)CCN21 (centres undefined) | 76.3 | 
13 | CC(C)(C)OC1CCC([N+](=O)[O-])=C2N(Cc3ccc(Cl)nc3)CCN21 (centres undefined) | 72.8 | 
14 | CCCCCOC1CCC([N+](=O)[O-])=C2N(Cc3ccc(Cl)nc3)CCN21 (centres undefined) | 62.6 | 
15 | CC(C)CCOC1CCC([N+](=O)[O-])=C2N(Cc3ccc(Cl)nc3)CCN21 (centres undefined) | 24.4 | 
16 | O=[N+]([O-])C1=C2N(Cc3ccc(Cl)nc3)CCN2C(OCc2ccccc2)CC1 (centres undefined) | > 90 | 573
17 | O=[N+]([O-])C1=C2N(Cc3ccc(Cl)nc3)CCN2C(OCc2ccc(Cl)nc2)CC1 (centres undefined) | 50 | 1150
18 | C#CCOC1CCC([N+](=O)[O-])=C2N(Cc3ccc(Cl)nc3)CCN21 (centres undefined) | 46.9 | 
19 | CC(C)=CCOC1CCC([N+](=O)[O-])=C2N(Cc3ccc(Cl)nc3)CCN21 (centres undefined) | 15.9 | 
20 | COC1CC(C)C([N+](=O)[O-])=C2N(Cc3ccc(Cl)nc3)CCN21 (centres undefined) | > 90 | 148
21 | CC1CC(O)N2CCN(Cc3ccc(Cl)nc3)C2=C1[N+](=O)[O-] (centres undefined) | > 90 | 97
22 | CCOC1CC(C)C([N+](=O)[O-])=C2N(Cc3ccc(Cl)nc3)CCN21 (centres undefined) | > 90 | 186
23 | O=[N+]([O-])/N=C1\NCCN1Cc1ccc(Cl)nc1 [IMIDACLOPRID] | > 90 | 35
